Test results: article PMC3604156 (Transplantation, 2013)
Read-outs that look alike come from different tables or passages of the source.

What was measured:
[1] = type: in vivo, human; conditions: expressors vs nonexpressors
[2] = type: in vivo, human; conditions: for AUC0–inf: whole blood, single oral 5 mg/kg CsA, mean ± SD

SMILES: CC[C@@H]1NC(=O)[C@H]([C@H](O)[C@H](C)C/C=C/CO)N(C)C(=O)[C@H](C(C)C)N(C)C(=O)[C@H](CC(C)C)N(C)C(=O)[C@H](CC(C)(C)O)N(C)C(=O)[C@@H](C)NC(=O)[C@H](C)NC(=O)[C@H](CC(C)C)N(C)C(=O)[C@H](C(C)C)NC(=O)[C@H](CC(C)C)N(C)C(=O)CN(C)C1=O [AM19]
- average cumulative amount excreted in urine, higher in CYP3A5 expressors compared to nonexpressors [1]: 48%
- AUCAM19/AUCAM1 ratio, higher in CYP3A5 expressors compared to nonexpressors ([2]; expressors vs nonexpressors): 46.9%
- average blood AUC, higher in CYP3A5 expressors compared to nonexpressors ([2]; expressors vs nonexpressors): 47.4%
- AUC0–inf ([2]; CYP3A5 expressors (n=12)): 1360 ± 602 ng·h/mL
- AUC0–inf ([2]; CYP3A5 nonexpressors (n=12)): 923 ± 343 ng·h/mL
